Key:
[1] = system: COS-7 cells; conditions: previously shown (Zhou et al., 1990); cited from earlier work
[2] = system: D5 pseudogenes D5.psi.1 (HGRI-6) and D5.psi.2 (HGRI-8); experiment: [3H]SCH23390 binding to membranes of cells transfected with putative pseudogenes; set-up: species or system human; conditions: each of the two putative pseudogenes

Compound | ability to bind SCH23390 [1] | binding to pseudogene-transfected membranes [2]
CN1CCc2cc(Cl)c(O)cc2[C@@H](c2ccccc2)C1 [SCH23390] | lack the ability to bind | 
CN1CCc2cc(Cl)c(O)cc2[C@@H](c2ccccc2)C1 [[^3 H]SCH23390] |  | failed to bind

From patent US5427942A (State of Oregon, Acting by and Through the Oregon State …, priority 1991, dated 1995)
